Literature values, collected in US20250387523A1, “COMBINATION THERAPY OF RADIONUCLIDE COMPLEX” (Novartis AG, priority 2021, published 2025).
Read-outs that look alike come from different tables or passages of the source.

Experiments:
recurrent glioblastoma = conditions: randomized 2:1
[1] = test system: newly diagnosed glioblastoma; conditions: newly diagnosed patients; temozolomide added to radiation therapy (radiotherapy alone 12.1 months)
[2] = test system: newly diagnosed glioblastoma

SMILES | median OS (recurrent glioblastoma) [months] | median PFS (recurrent glioblastoma) [months] | median overall survival [1] [months] | longer median survival with MGMT promoter methylation (glioblastoma; glioblastoma patients treated with temozolomide, MGMT promoter methylation present vs lacking) | clinical benefit (glioblastoma; patients that lack MGMT promoter methylation) | median survival ([2]; patients with a methylated MGMT promoter, temozolomide and radiotherapy (radiotherapy only 15.3 months, P=0.007)) [months] | median survival ([2]; tumors not methylated at the MGMT promoter, temozolomide plus radiotherapy (radiotherapy only 11.8 months, P=0.06)) [months]
O=NN(CCCl)C(=O)NC1CCCCC1 [lomustine] | 8.6 | 1.5 | – | – | – | – | –
Cn1nnc2c(C(N)=O)ncn2c1=O [temozolomide, 3,4-Dihydro-3-methyl-4-oxoimidazo[5,1-d][1,2,3,5]tetrazine-8-carboxamide] | – | – | 14.6 | approximately 50% | no clinical benefit | 21.7 | 12.7
